Source: patent publication US11980616B2, “Treating liver disease by selectively eliminating senescent cells” (Buck Institute for Research on Aging, priority 2014, dated 2024)

What was measured:
[1] = test system: non-senescent lung fibroblasts (Non Sen IMR90); assay: Cell count toxicity assay, non-senescent IMR90; format: cell-based, human; details: 0, 2.5, 10 μM, 9 days
Procedure: (§1) Foreskin fibroblast cell lines HCA2 and BJ, lung fibroblast cell line IMR90, and mouse embryonic fibroblasts were seeded in six-well plates and induced to senesce with 10 Gy of ionizing radiation (IR) or a 24 hr treatment with doxorubicin (Doxo). Senescent phenotype was allowed to develop for at least 7 days, at which point a cell count was made to determine the baseline number of cells. Nutlin-3a treatment was then initiated for a period of at least 9 days. Media alone or media with drug as appropriate was refreshed at least every three days. At the end of the assay time period, cells are counted. Each condition was seeded in three plate wells and counted independently. Initial cell count serves as a control to determine the induction of senescence, as compared to the last day count without nutlin treatment. Initial non-senescent cell count serves as a proxy to determine Nutlin-3a toxicity.
(§2) Non-senescent foreskin fibroblasts (HCA2), lung fibroblasts (IMR90), and mouse embryonic fibroblasts (MEF) were treated with varying concentrations (0, 2.5 μM, and 10 μM) of Nutlin-3a for a period of 9 days to assess Nutlin-3a toxicity. Cell counts were taken at the start (NS start) and end of Nutlin-3a treatment. The difference between counts of cells not treated with Nutlin-3a on day 9 (NS 0) and cell counts determined at day zero (NS start) reflects the cell growth over the indicated time period. […]

[2] = test system: doxorubicin-induced senescent cells in p16-3MR mice; assay: Removal of doxorubicin-induced senescent cells in p16-3MR transgenic mice; format: in vivo, mouse
Procedure: The capability of Nutlin-3a to remove senescent cells in vivo was determined in transgenic p16-3MR mice (see, e.g., International Application Publication No. WO2013/090645). The transgenic mouse comprises a p16^Ink4a promoter operatively linked to a trimodal fusion protein for detecting senescent cells and for selective clearance of senescent cells in these transgenic mice, which is illustrated in FIG. 7. […] 3MR (tri-modality reporter) is a fusion protein containing functional domains of a synthetic Renilla luciferase (LUC), monomeric red fluorescence protein (mRFP), and truncated herpes simplex virus (HSV)-1 thymidine kinase (tTK), which allows killing by ganciclovir (GCV) (see, e.g., Ray et al., Cancer Res. 64:1323-30 (2004)). The 3MR cDNA was inserted in frame with p16 in exon 2, creating a fusion protein containing the first 62 amino acids of p16, but not a full-length wild-type p16 protein. […] The p16^Ink4a gene promoter (approximately 100 kilobase pairs) was introduced upstream of a nucleotide sequence encoding a trimodal reporter fusion protein. Alternatively, a truncated p16^Ink4a promoter may be used (see, e.g., Baker et al., Nature, supra; International Application Publication No. WO2012/177927; Wang et al., supra). Thus, the expression of 3MR is driven by the p16^Ink4a promoter in senescent cells only. The detectable markers, LUC and mRFP permitted detection of senescent cells by bioluminescence and fluorescence, respectively. […] Transgenic founder animals, which have a C57B16 background, were established and bred using known procedures for introducing transgenes into animals (see, e.g., Baker et al., Nature 479:232-36 (2011)).
Female C57/BL6 p16-3MR mice were randomized into doxorubicin+Nutlin-3a treated or doxorubicin only treated groups (see FIG. 6). Senescence was induced by intraperitoneal administration of doxorubicin at 10 mg/kg to the mice ten days prior to administration of Nutlin-3a (Day −10). Nutlin-3a (25 mg/kg) was administered intraperitoneally daily from day 10 to day 24 post-doxorubicin treatment (Group=9 mice). Control mice (doxorubicin treated) were injected with equal volumes of PBS (Group=3 mice). Luminescence imaging (Xenogen Imaging system) was performed at Day 0 (i.e., 10 days post-doxorubicin treatment) as a baseline for each mouse (100% intensity).
Luminescence imaging of the mice was performed on day 7, 14, 21, 28, and 35 following the initiation of Nutlin-3a treatment. Reduction of luminescence (L) was calculated as: L=(Imaging post-Nutlin-3a treatment)/(Baseline Imaging)[…]. If L is greater than or equal to 100%, the number of senescent cells was not reduced. If L is less than 100%, then the number of senescent cells was reduced. Every mouse was calculated independently, and background was subtracted from each sample.
Experiments were performed to determine the effect of Nutlin-3a treatment on expression of genes associated with senescence. Groups of female C57/BL6 p16-3MR were treated as described above. Three weeks after the end of Nutlin-3a treatment (day 35), the doxorubicin treated mice (control) (N=3) and doxorubicin+Nutlin-3a-treated mice (N=6) were sacrificed. […]
RNA was analyzed for mRNA levels of endogenous senescence markers (p21, p16^INK4a (p16), and p53) and SASP factors (mmp-3 and IL-6) relative to actin mRNA (control for cDNA quantity) using the Roche Universal Probe Library for real-time PCR assay. […]

[3] = test system: IL-6 positive senescent IMR90 cells; assay: IL-6 immunofluorescence in irradiated senescent IMR90 cells; format: cell-based, human
Procedure: Primary human fibroblast (IMR90) cells were induced to senesce by applying 10 Gy of irradiation. Seven days after irradiation (Day 0), cells were treated with 10 μM Nutlin-3a or vehicle (DMSO) for nine days (Day 9). The drug or vehicle was refreshed every three days. Drug/vehicle was removed at Day 9 and the cells were cultured for an additional three days (Day 12). Cells were then fixed with 4% paraformaldehyde and stained by immunofluorescence with a specific anti-IL-6 antibody (R&D, AF-206-NA). Cells were counterstained with DAPI for nuclear visualization. The percent IL-6 positive cells is illustrated in FIG. 12A. IL-6 positive cells were determined in an unbiased manner using CellProfiler software. Three different cultures were assessed. Non-senescent cells had no detectable cells IL-6 production while senescent cells were about 8% positive at day 9 after vehicle (DMSO) treatment (16 days after irradiation). […] At day 12, 3 days after Nutlin-3a was removed and 19 days after irradiation, IL-6 positive cells in the vehicle control were about 9% and Nutlin3a treated cells were less than 1% positive for IL-6.

[4] = test system: non-senescent mouse embryonic fibroblasts (Non Sen MEFs); assay: Cell count toxicity assay, non-senescent MEF; format: cell-based; details: 0, 2.5, 10 μM, 9 days
Procedure: as §1, §2

COc1ccc(C2=N[C@@H](c3ccc(Cl)cc3)[C@@H](c3ccc(Cl)cc3)N2C(=O)N2CCNC(=O)C2)c(OC(C)C)c1 [Nutlin-3a]
Proliferation (percent growth) [1]: reduces proliferation | Toxicity (cell number vs starting level) [1]: non-toxic | Luminescence associated with doxorubicin-induced senescence (% of baseline) ([2]; 25 mg/kg i.p. daily day 10 to 24 post-doxorubicin): reduced luminescence | Decrease in luminescence ([2]; 25 mg/kg i.p. daily, at day 14, day 28 and day 35): statistically significant decrease | γH2AX positive cells (DNA damage) in lung sections ([2]; day 35, vs doxorubicin alone): reduced the number of cells with DNA damage | mRNA of SASP factors (mmp-3, IL-6) and senescence markers (p21, p16, p53) ([2]; skin and fat, day 35, vs doxorubicin alone): reduced expression | Senescence-associated β-gal intensity in fat biopsies ([2]; three weeks after treatment, vs doxorubicin alone): reduced senescence-associated β-gal intensity | Percent IL-6 positive cells ([3]; 10 μM, Day 9, vehicle about 8%): below 5% | Percent IL-6 positive cells ([3]; Day 12, 3 days after drug removal, vehicle about 9%): less than 1% | Proliferation (percent growth) [4]: reduces proliferation | Toxicity (cell number vs starting level) [4]: non-toxic
